Measured values as given in patent US10428080B2, “TBK/IKK inhibitor compounds and uses thereof” (Merck Patent GmbH, priority 2015, dated 2019).
Where a name gives a salt, the structure may show the parent alone.

Key:
[1] = molecular target: T1, TBK1 (Homo sapiens, UniProt Q9UHD2); assay: TBK Biochemical Assay; conditions: read-out: TBK1 IC50
T1 sequence (Q9UHD2 1-729): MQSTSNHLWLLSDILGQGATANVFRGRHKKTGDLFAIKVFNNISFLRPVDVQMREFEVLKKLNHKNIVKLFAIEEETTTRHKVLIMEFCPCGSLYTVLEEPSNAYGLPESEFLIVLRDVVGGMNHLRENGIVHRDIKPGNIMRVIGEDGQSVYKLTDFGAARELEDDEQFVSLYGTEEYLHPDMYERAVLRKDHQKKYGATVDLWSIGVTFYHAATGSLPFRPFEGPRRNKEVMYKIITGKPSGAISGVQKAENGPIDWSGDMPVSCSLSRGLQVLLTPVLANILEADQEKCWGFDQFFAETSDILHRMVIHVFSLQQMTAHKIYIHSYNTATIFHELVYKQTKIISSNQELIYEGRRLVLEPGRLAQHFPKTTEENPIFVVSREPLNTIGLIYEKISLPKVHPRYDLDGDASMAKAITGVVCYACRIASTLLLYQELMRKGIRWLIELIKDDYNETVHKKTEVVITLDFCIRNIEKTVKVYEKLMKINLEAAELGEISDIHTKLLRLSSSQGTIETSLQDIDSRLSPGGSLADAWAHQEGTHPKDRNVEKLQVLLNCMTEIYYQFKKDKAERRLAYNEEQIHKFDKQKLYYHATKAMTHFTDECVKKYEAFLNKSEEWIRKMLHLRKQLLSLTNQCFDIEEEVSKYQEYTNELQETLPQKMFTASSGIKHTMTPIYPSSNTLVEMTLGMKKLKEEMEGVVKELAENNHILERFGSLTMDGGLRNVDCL
Summary of the method: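 Caliper LabChip mobility-shift readout of substrate and product after 90 min of TBK1 reaction at 25° C and stop-buffer addition. Compounds tested in 1:4 serial dilution over 10 points from 30 uM final at 1% DMSO; staurosporine 10 uM final defines full inhibition.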

[2] = molecular target: T2, IKKε (Homo sapiens, UniProt Q14164); assay: IKKe Biochemical Assay; conditions: read-out: IKKε IC50
T2 sequence (Q14164 1-716): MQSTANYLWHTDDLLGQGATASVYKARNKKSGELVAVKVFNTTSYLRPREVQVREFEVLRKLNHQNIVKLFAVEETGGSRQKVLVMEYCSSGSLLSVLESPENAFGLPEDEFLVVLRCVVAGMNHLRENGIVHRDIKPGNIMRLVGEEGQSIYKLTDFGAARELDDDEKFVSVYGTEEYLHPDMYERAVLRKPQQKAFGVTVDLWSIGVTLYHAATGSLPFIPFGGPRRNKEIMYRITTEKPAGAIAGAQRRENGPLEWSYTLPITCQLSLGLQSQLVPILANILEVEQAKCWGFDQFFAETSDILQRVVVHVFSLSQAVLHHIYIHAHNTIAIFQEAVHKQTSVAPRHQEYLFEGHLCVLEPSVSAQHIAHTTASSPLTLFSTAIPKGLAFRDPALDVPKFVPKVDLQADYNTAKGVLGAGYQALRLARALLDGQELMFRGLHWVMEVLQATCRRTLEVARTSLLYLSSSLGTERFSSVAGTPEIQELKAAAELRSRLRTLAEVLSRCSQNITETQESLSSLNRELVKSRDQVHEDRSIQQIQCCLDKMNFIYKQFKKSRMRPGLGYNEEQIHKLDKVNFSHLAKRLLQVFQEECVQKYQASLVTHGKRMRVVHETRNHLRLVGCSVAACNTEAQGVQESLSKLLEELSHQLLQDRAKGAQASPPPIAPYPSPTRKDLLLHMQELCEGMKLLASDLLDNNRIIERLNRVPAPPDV
Summary of the method: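 Activity was measured as mobility-shift separation of phosphorylated from unphosphorylated substrate on a LabChip EZ Reader. Compound was titrated from 30 uM final in 10 points, 1:4 steps, with 1% DMSO, and enzyme plus substrate reacted 90 min at 25° C before stop buffer. Control wells held 10 uM staurosporine.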

SMILES	IC50 [1]	IC50 [2]
COc1cc(C(=O)N(C)C)ccc1-c1cc2nccc(-c3ccc(OC4CCN(C)CC4(F)F)c(C#N)c3)c2o1 (centres unmarked) [Compound 97, 4-{7-[3-Cyano-4-(3,3-difluoro-1-methyl-piperidin-4-yloxy)-phenyl]-furo[3,2-b]pyridin-2-yl}-3-methoxy-N,N-dimethyl-benzamide]	< 100 nM	< 100 nM
COc1cc(C(=O)N2CC3CCCC3C2)ccc1-c1cc2nccc(-c3ccc(OC4CCOCC4)c(C#N)c3)c2o1 (centres unmarked) [Compound 99, 5-{2-[4-(Hexahydro-cyclopenta[c]pyrrole-2-carbonyl)-2-methoxy-phenyl]-furo[3,2-b]pyridin-7-yl}-2-(tetrahydro-pyran-4-yloxy)-benzonitrile]	< 100 nM	< 100 nM
CNC(=O)c1ccc(-c2cc3nccc(-c4ccc(OC5CCOCC5)c(C#N)c4)c3o2)c(OC)c1 [Compound 100, 4-{7-[3-Cyano-4-(tetrahydro-pyran-4-yloxy)-phenyl]-furo[3,2-b]pyridin-2-yl}-3-methoxy-N-methyl-benzamide]	< 100 nM	< 100 nM
COc1cc(C(=O)NC2CCOCC2F)ccc1-c1cc2nccc(-c3ccc(OC4CCOCC4)c(C#N)c3)c2o1 (centres unmarked) [Compound 102, 4-{7-[3-Cyano-4-(tetrahydro-pyran-4-yloxy)-phenyl]-furo[3,2-b]pyridin-2-yl}-N-(3-fluoro-tetrahydro-pyran-4-yl)-3-methoxy-benzamide]	< 100 nM	< 100 nM
COc1cc(C(=O)N2CC[C@H](O)C2)ccc1-c1cc2nccc(-c3ccc(NC4CCOCC4)c(C#N)c3)c2o1 [Compound 103, 5-{2-[4-((S)-3-Hydroxy-pyrrolidine-1-carbonyl)-2-methoxy-phenyl]-furo[3,2-b]pyridin-7-yl}-2-(tetrahydro-pyran-4-ylamino)-benzonitrile]	< 100 nM	< 100 nM
N#Cc1cc(-c2ccnc3cc(-c4ccc(C(=O)O)cc4)oc23)ccc1N1CC[C@H](F)C1 [Compound 107, 4-{7-[3-Cyano-4-((S)-3-fluoro-pyrrolidin-1-yl)-phenyl]-furo[3,2-b]pyridin-2-yl}-benzoic acid]	< 100 nM	< 100 nM
COc1cc(C(=O)N(C)C)ccc1-c1cc2nccc(-c3ccc(OC4(C(F)(F)F)CCNC4)c(C#N)c3)c2o1 (centres unmarked) [Compound 113, 4-{7-[3-Cyano-4-(3-trifluoromethyl-pyrrolidin-3-yloxy)-phenyl]-furo[3,2-b]pyridin-2-yl}-3-methoxy-N,N-dimethyl-benzamide]	< 100 nM	< 100 nM
COc1cc(C(=O)N2CCC3(CCC3)C2)ccc1-c1cc2nccc(-c3ccc(OC4CCOCC4)c(C#N)c3)c2o1 [Compound 114, 5-{2-[4-(6-Aza-spiro[3.4]octane-6-carbonyl)-2-methoxy-phenyl]-furo[3,2-b]pyridin-7-yl}-2-(tetrahydro-pyran-4-yloxy)-benzonitrile]	< 100 nM	< 100 nM
COc1cc(C(=O)N(C)C)ccc1-c1cc2nccc(-c3ccc(O[C@@H]4CCNC4)c(C#N)c3)c2o1 [Compound 115, 4-{7-[3-Cyano-4-((R)-pyrrolidin-3-yloxy)-phenyl]-furo[3,2-b]pyridin-2-yl}-3-methoxy-N,N-dimethyl-benzamide]	< 100 nM	< 100 nM
COc1cc(C(=O)N(C)C)ccc1-c1cc2nccc(-c3ccc(O[C@H]4CCNC4)c(C#N)c3)c2o1 [Compound 121, 4-{7-[3-Cyano-4-((S)-pyrrolidin-3-yloxy)-phenyl]-furo[3,2-b]pyridin-2-yl}-3-methoxy-N,N-dimethyl-benzamide]	< 100 nM	< 100 nM
N#Cc1cc(-c2ccnc3cc(-c4ccc(N)cc4)oc23)ccc1OC1CCOCC1 [Compound 126]	< 100 nM	< 100 nM
COc1cc(C(=O)N(C)C)ccc1-c1cc2nccc(-c3ccc(OC4CNC4)c(C#N)c3)c2o1 [Compound 128, 4-{7-[4-(Azetidin-3-yloxy)-3-cyano-phenyl]-furo[3,2-b]pyridin-2-yl}-3-methoxy-N,N-dimethyl-benzamide]	< 100 nM	< 100 nM
COc1cc(C(=O)NC2CCOCC2F)ccc1-c1cc2nccc(-c3ccc(NC4CCOCC4)c(C#N)c3)c2o1 (centres unmarked) [Compound 132, 4-{7-[3-Cyano-4-(tetrahydro-pyran-4-ylamino)-phenyl]-furo[3,2-b]pyridin-2-yl}-N-(3-fluoro-tetrahydro-pyran-4-yl)-3-methoxy-benzamide]	< 100 nM	< 100 nM
COc1cc(C(=O)N2CC3CCCC3C2)ccc1-c1cc2nccc(-c3ccc(NC4CCOCC4)c(C#N)c3)c2o1 (centres unmarked) [Compound 137, 5-{2-[4-(Hexahydro-cyclopenta[c]pyrrole-2-carbonyl)-2-methoxy-phenyl]-furo[3,2-b]pyridin-7-yl}-2-(tetrahydro-pyran-4-ylamino)-benzonitrile]	< 100 nM	< 100 nM
COc1cc(C(=O)N(C)C)ccc1-c1cc2nccc(-c3ccc(O[C@H]4CCCNC4)c(C#N)c3)c2o1 [Compound 142, 4-{7-[3-Cyano-4-((S)-piperidin-3-yloxy)-phenyl]-furo[3,2-b]pyridin-2-yl}-3-methoxy-N,N-dimethyl-benzamide]	< 100 nM	< 100 nM
COc1cc(C(=O)N(C)C)ccc1-c1cc2nccc(-c3ccc(OC4CCN(C(C)=O)C4)c(C#N)c3)c2o1 (centres unmarked) [Compound 144, 4-{7-[4-(1-Acetyl-pyrrolidin-3-yloxy)-3-cyano-phenyl]-furo[3,2-b]pyridin-2-yl}-3-methoxy-N,N-dimethyl-benzamide]	< 100 nM	< 100 nM
COc1cc(C(=O)NC2CCN(C(=O)OC(C)(C)C)C2)ccc1-c1cc2nccc(-c3ccc(NC4CCOCC4)c(C#N)c3)c2o1 (centres unmarked) [Compound 147, 3-(4-{7-[3-Cyano-4-(tetrahydro-pyran-4-ylamino)-phenyl]-furo[3,2-b]pyridin-2-yl}-3-methoxy-benzoylamino)-pyrrolidine-1-carboxylic acid tert-butyl ester]	< 100 nM	< 100 nM
COc1cc(C(=O)NCC2CCCCC2(F)F)ccc1-c1cc2nccc(-c3ccc(OC4CCOCC4)c(C#N)c3)c2o1 (centres unmarked) [Compound 151, 4-{7-[3-Cyano-4-(tetrahydro-pyran-4-yloxy)-phenyl]-furo[3,2-b]pyridin-2-yl}-N-(2,2-difluoro-cyclohexylmethyl)-3-methoxy-benzamide]	< 100 nM	< 100 nM
COc1cc(C(=O)N(C)C)ccc1-c1cc2nccc(-c3ccc(OCC4CCNC4)c(C#N)c3)c2o1 (centres unmarked) [Compound 152, 4-{7-[3-Cyano-4-(pyrrolidin-3-ylmethoxy)-phenyl]-furo[3,2-b]pyridin-2-yl}-3-methoxy-N,N-dimethyl-benzamide hydrochloride]	< 100 nM	< 100 nM
COc1cc(C(=O)N(C)C)ccc1-c1cc2nccc(-c3ccc(OC4CCN(C(C)C)C4)c(C#N)c3)c2o1 (centres unmarked) [Compound 157, 4-{7-[3-Cyano-4-(1-isopropyl-pyrrolidin-3-yloxy)-phenyl]-furo[3,2-b]pyridin-2-yl}-3-methoxy-N,N-dimethyl-benzamide]	100 to 1000 nM	< 100 nM
N#Cc1cc(-c2ccnc3cc(-c4ccc(C(=O)O)cc4)oc23)ccc1OC1CC(CO)(CCl)C1 (centres unmarked) [Compound 162]	100 to 1000 nM	< 100 nM
COc1cc(C(=O)N(C)C)ccc1-c1cc2nccc(-c3ccc(NC4CCCOC4)c(C#N)c3)c2o1 (centres unmarked) [Compound 164]	100 to 1000 nM	100 to 1000 nM
